This is an account of results in publication PMC9851200, “Multiparameter phenotypic screening for endogenous TFEB and TFE3 translocation identifies novel chemical series modulating lysosome function” (Autophagy, 2022).

Like-named read-outs stand apart in the source and are kept apart here.

Common to all, as to test: biochemical
Common to all, as to type: binding

For assay [1], the target named is cellular kinases of SH-SY5Y cells (Homo sapiens, UniProt Q15349). The note with it: 2µM; SH-SY5Y cells; labeling site Lys2; peptide DLKPENILLDEEGHIKITDFGLSK
From the text:
(§1) As KINOMEscan is an in vitro assay, and as different cell types have variable kinase expression profiles we sought to determine the kinase binding profile in our SH-SY5Y TFEB-relocalization cell model. […] Bound kinases were pulled down and analyzed by mass spectrometry to determine the in situ kinase binding profile for each compound.

The target of assay [2] is T1, cellular kinases of SH-SY5Y cells (Homo sapiens, UniProt Q9NYL2).
T1 construct: endogenous in cells; host or cells: SH-SY5Y
T1 sequence (Q9NYL2 whole entry): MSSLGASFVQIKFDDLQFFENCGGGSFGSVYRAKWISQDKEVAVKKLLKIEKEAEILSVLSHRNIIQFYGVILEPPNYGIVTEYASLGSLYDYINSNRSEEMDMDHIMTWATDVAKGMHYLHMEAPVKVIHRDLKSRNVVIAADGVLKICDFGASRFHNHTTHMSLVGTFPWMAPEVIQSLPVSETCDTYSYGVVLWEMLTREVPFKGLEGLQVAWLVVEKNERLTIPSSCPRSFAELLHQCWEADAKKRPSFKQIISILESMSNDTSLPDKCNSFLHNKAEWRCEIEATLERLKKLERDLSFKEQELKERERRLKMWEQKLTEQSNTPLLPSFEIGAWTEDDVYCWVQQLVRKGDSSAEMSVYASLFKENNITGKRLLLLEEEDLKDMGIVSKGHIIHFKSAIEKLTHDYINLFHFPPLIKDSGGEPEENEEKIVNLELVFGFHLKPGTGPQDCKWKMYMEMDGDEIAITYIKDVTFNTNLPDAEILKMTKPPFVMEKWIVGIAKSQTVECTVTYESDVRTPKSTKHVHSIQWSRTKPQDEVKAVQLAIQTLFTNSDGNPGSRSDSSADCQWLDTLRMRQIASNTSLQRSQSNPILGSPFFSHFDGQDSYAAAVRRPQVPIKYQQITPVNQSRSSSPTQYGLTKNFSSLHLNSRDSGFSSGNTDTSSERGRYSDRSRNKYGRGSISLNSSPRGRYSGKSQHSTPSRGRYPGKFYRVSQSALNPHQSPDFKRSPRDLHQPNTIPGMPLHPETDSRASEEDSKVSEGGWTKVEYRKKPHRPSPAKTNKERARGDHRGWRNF
The note with it: 2µM; SH-SY5Y cells; Labeling Site Lys1; WISQDKEVAVKK; read-out: KiNativ in-cell binding, % Inhibition, MAP3K20/ZAK.
Source text: as §1

For assay [3], the target named is T2, cellular kinases of SH-SY5Y cells (Homo sapiens, UniProt Q7RTN6).
T2 construct: endogenous in cells; host or cells: SH-SY5Y
T2 sequence (Q7RTN6 whole entry): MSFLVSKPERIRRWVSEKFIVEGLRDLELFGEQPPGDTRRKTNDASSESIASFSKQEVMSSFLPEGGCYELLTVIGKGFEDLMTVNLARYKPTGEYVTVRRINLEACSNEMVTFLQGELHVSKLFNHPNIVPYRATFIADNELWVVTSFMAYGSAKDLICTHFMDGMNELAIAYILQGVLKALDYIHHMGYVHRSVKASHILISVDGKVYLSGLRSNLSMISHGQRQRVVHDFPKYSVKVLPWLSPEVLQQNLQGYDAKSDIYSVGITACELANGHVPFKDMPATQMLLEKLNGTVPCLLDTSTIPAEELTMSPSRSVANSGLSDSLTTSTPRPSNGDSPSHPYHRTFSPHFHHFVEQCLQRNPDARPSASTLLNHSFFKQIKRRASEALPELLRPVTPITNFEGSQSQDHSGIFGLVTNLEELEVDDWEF
The note with it: 2µM; SH-SY5Y cells; Labeling Site Activation Loop; YSVKVLPWLSPEVLQQNLQGYDAK; read-out: KiNativ in-cell binding, % Inhibition, STRADA.
Source text: as §1

For assay [4], the target named is cellular kinases of SH-SY5Y cells (Homo sapiens, UniProt P06493). The settings on record: 2µM; SH-SY5Y cells; Labeling Site Lys2; DLKPQNLLIDDK; read-out: KiNativ in-cell binding, % Inhibition, CDK1/CDC2.
Sequence of cellular kinases of SH-SY5Y cells (Homo sapiens, UniProt P06493) (P06493 whole entry): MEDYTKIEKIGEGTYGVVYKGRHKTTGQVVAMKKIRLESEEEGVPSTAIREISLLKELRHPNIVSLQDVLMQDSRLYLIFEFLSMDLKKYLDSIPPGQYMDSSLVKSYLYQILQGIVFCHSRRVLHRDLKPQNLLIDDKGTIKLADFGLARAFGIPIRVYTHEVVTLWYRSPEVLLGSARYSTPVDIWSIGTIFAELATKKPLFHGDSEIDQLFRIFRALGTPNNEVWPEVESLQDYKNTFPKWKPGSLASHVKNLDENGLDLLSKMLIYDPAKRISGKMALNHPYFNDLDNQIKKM
Source text: as §1

The target in assay [5] is T3, cellular kinases of SH-SY5Y cells (Homo sapiens, UniProt Q8TD19).
T3 construct: endogenous in cells; host or cells: SH-SY5Y
T3 sequence (Q8TD19 1-979): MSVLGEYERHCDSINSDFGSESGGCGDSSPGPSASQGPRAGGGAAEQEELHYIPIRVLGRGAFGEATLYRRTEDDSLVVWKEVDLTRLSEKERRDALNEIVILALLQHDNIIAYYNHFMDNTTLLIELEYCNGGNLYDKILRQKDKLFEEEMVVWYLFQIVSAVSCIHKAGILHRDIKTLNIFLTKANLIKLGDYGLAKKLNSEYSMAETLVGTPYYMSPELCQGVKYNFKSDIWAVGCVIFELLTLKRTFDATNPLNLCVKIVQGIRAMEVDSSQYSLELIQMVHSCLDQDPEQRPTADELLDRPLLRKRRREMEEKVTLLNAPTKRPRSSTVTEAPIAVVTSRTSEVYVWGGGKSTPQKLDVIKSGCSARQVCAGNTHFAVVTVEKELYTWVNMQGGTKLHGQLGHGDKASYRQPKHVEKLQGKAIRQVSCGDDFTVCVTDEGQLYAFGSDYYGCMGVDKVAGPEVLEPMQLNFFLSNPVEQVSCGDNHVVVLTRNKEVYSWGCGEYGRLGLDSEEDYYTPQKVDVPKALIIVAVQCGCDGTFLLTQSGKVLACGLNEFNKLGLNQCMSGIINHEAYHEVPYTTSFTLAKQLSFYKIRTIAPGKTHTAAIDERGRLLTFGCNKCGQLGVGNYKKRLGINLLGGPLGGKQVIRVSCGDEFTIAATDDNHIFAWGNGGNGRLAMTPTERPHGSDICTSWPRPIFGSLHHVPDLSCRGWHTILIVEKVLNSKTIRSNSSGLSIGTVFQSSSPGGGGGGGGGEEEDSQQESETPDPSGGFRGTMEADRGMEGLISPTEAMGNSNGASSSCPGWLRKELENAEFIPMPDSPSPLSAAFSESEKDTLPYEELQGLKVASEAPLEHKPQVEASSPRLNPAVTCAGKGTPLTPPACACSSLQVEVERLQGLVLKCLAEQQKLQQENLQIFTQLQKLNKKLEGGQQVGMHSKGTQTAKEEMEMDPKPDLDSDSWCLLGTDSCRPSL
The settings on record: 2µM, SH-SY5Y cells, read-out: KiNativ in-cell binding, % Inhibition, NEK9.
Source text: as §1

For assay [6], the target named is cellular kinases of SH-SY5Y cells (Homo sapiens, UniProt Q00535). The note with it: 2µM, SH-SY5Y cells, read-out: KiNativ in-cell binding, % Inhibition, CDK5.
Sequence of cellular kinases of SH-SY5Y cells (Homo sapiens, UniProt Q00535) (Q00535 whole entry): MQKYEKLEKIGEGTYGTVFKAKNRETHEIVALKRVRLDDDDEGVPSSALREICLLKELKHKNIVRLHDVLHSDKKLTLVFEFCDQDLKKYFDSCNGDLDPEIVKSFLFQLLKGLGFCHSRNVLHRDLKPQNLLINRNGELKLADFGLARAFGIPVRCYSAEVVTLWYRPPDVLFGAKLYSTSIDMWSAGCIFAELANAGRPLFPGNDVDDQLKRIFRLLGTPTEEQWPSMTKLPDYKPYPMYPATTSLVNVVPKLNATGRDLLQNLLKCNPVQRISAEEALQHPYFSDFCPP
Source text: as §1

Assay [7] deals with T4, cellular kinases of SH-SY5Y cells (Homo sapiens, UniProt Q15418).
T4 construct: endogenous in cells; host or cells: SH-SY5Y
T4 sequence (Q15418 whole entry): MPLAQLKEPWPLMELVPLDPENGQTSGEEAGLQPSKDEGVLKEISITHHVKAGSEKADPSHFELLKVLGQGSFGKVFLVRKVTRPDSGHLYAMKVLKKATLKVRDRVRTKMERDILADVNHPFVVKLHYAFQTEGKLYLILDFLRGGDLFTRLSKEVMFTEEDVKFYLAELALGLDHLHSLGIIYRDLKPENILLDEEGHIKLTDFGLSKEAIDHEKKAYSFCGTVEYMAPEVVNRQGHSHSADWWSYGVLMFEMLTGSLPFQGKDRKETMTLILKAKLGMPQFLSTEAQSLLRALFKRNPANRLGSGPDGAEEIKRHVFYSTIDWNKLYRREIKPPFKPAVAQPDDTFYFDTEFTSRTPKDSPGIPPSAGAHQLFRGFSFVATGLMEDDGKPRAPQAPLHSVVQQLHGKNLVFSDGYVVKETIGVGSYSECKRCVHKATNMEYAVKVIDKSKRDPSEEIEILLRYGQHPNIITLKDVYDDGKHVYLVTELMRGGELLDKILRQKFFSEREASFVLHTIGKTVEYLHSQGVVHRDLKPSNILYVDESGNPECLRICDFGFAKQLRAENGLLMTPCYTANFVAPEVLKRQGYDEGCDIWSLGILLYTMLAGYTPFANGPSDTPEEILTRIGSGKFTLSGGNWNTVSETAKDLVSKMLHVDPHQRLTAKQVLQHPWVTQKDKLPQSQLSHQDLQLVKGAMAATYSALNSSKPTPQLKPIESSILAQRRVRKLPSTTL
The settings on record: 2µM, SH-SY5Y cells.
Source text: as §1

Assay [8] concerns the target cellular kinases of SH-SY5Y cells (Homo sapiens, UniProt Q96L34). The settings on record: 2µM, SH-SY5Y cells, read-out: KiNativ in-cell binding, % Inhibition, MARK4.
Source text: as §1

For assay [9], the target named is cellular kinases of SH-SY5Y cells (Homo sapiens, UniProt Q9NWZ3). The settings on record: 2µM, SH-SY5Y cells.
Sequence of cellular kinases of SH-SY5Y cells (Homo sapiens, UniProt Q9NWZ3) (Q9NWZ3 whole entry): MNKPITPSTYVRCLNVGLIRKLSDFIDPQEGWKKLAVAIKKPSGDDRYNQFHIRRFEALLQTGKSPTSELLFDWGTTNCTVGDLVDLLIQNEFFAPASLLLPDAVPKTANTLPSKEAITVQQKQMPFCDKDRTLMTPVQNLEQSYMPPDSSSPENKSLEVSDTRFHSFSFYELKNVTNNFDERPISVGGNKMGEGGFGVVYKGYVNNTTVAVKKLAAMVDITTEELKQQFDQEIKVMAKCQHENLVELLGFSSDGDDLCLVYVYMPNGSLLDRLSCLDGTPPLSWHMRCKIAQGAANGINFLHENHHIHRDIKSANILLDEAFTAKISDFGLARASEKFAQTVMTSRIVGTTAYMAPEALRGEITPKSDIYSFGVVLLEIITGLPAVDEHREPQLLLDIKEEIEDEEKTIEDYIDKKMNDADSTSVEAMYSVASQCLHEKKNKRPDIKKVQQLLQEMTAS
Source text: as §1

The target of assay [10] is cellular kinases of SH-SY5Y cells (Homo sapiens, UniProt P29323). The settings on record: 2µM; SH-SY5Y cells; Labeling Site Activation Loop; FLEDDTSDPTYTSALGGKIPIR; read-out: KiNativ in-cell binding, % Inhibition, EphB2.
Source text: as §1

The target in assay [11] is T5, cellular kinases of SH-SY5Y cells (Homo sapiens, UniProt Q15131).
T5 construct: endogenous in cells; host or cells: SH-SY5Y
T5 sequence (Q15131 whole entry): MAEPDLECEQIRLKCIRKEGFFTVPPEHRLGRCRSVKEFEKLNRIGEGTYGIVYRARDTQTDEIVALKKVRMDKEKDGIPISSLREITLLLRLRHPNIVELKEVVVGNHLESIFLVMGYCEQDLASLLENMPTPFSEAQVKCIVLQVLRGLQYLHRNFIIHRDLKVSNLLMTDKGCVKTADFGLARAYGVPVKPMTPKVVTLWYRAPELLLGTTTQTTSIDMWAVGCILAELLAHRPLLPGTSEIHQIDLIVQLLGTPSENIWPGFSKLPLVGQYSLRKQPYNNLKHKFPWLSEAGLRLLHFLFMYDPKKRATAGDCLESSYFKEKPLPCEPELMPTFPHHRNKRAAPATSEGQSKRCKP
The settings on record: 2µM; SH-SY5Y cells; labeling site Lys2; peptide DLKVSNLLMTDK
Source text: as §1

Assay [12] has as its target cellular kinases of SH-SY5Y cells (Homo sapiens, UniProt O14965). The note with it: 2µM, SH-SY5Y cells, read-out: KiNativ in-cell binding, % Inhibition, AURKA/AurA.
Source text: as §1

Assay [13] addresses cellular kinases of SH-SY5Y cells (Homo sapiens, UniProt P42338). The settings on record: 2µM; SH-SY5Y cells; Labeling Site ATP; VFGEDSVGVIFKNGDDLRQDMLTLQMLR; read-out: KiNativ in-cell binding, % Inhibition, PIK3CB.
Source text: as §1

Sequence of cellular kinases of SH-SY5Y cells (Homo sapiens, UniProt O14965) (O14965 whole entry): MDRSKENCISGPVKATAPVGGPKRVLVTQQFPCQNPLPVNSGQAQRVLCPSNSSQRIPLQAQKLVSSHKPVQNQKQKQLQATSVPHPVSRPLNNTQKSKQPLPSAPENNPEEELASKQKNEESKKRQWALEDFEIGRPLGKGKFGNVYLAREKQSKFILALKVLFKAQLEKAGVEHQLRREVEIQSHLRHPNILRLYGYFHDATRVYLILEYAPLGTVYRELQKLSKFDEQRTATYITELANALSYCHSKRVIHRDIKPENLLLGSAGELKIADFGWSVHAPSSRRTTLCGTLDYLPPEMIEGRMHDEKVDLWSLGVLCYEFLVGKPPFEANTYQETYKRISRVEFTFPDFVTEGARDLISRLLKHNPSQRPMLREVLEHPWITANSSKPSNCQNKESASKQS
Sequence of cellular kinases of SH-SY5Y cells (Homo sapiens, UniProt Q96L34) (Q96L34 whole entry): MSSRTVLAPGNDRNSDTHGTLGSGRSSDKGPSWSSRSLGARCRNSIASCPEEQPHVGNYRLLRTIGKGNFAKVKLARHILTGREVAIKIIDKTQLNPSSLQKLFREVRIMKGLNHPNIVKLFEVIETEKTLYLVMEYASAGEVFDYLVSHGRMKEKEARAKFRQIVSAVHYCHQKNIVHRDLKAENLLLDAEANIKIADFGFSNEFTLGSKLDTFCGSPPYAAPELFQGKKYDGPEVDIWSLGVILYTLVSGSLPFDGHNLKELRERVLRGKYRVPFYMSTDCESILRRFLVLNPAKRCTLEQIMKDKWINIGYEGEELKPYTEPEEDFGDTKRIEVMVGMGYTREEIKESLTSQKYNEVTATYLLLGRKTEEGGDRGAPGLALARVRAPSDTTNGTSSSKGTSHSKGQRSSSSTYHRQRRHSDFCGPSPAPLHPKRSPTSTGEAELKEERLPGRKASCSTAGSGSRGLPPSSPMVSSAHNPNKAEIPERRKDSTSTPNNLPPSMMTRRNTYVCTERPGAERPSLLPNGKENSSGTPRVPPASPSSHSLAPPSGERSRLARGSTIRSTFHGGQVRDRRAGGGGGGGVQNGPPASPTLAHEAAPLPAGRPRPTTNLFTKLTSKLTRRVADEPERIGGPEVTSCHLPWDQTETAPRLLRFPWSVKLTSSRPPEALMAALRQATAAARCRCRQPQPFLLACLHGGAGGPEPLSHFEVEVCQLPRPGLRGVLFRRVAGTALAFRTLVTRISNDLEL

As for `Cc1cccc(-c2nc(Nc3ccc4ncsc4c3)c3ccccc3n2)n1` [NK140], the “KiNativ in-cell binding, RSK3 domain1” value in [1] is recorded as -68.0. For the same molecule, the inhibition at 2 µM is -2% in assay [2]; 48.6% in assay [3]; -2.3% in assay [4]; 0.758% in assay [5] (Labeling Site Activation Loop, LGDYGLAKK); -12.8% in assay [5] (Labeling Site Lys1, RTEDDSLVVWKEVDLTR); -8% in assay [5] (Labeling Site Lys2, DIKTLNIFLTK). Moreover, the inhibition at 2 µM in assay [6] (Labeling Site Lys1, NRETHEIVALKR) is -44.9%; in assay [6] (Labeling Site Lys2, DLKPQNLLINR) it was -39%; in assay [7] (Labeling Site Activation Loop, LTDFGLSKEAIDHEKK, read-out: KiNativ in-cell binding, % Inhibition, RPS6KA1/RSK1 domain1), -25.4%; in assay [7] (Labeling Site Lys2, DLKPSNILYVDESGNPECLR, read-out: KiNativ in-cell binding, % Inhibition, RPS6KA1/RSK1 domain2), -53.6%; in [8] (Labeling Site Lys1, EVAIKIIDKTQLNPSSLQK), 7.2%; in [8] (Labeling Site Lys2, DLKAENLLLDAEANIK), 11.5%. Besides, the inhibition at 2 µM was -5.5% in [9] (Labeling Site Lys1, GYVNNTTVAVKK, read-out: KiNativ in-cell binding, % Inhibition, IRAK4); -8.7% in assay [10]; 8.2% in assay [12] (Labeling Site Lys1, FILALKVLFK); 18% in assay [12] (Labeling Site Lys2, DIKPENLLLGSAGELK); -11.4% in [13]. Besides, in assay [9] (labeling site Lys2, peptide DIKSANILLDEAFTAK), the “KiNativ in-cell binding, IRAK4” value is -14.3. Further, the “KiNativ in-cell binding, CDK10” value in [11] turned out to be 3.3.
